US7122657B2, “UDP-glucose aglycon-glucosytransferase” (priority 1999, dated 2006)

Experiments:
[1] = tested on: glucosyltransferase activity of desalted crude etiolated Sorghum seedling extract; test: Substrate specificity of desalted crude etiolated Sorghum seedling extract (TLC, 14C-UDP-glucose); format: biochemical, Sorghum bicolor; parameters: key: ▪: indicate that a radiolabelled product was visualised after incubation with the respective aglycone substrate; □: indicate that no radiolablled products could be detected under the experimental conditions employed; settings: aglycone substrate
Experimental: (§1) Generally a 20 μl reaction mixture including • 100 mM Tris HCl (pH 7.9), • 1–5 μM ^14C-UDP-glucose (11.0 GBq mmol^−1, Amersham LIFE SCIENCE), • 0–300 μM UDP-glucose, • 0–20 mM p-hydroxymandelonitrile (dissolved in water, freshly prepared), • 25 mM γ-gluconolactone, • 0–1 mg BSA and • 0.5–10 μl of protein preparation, is incubated at 30° C. between 2 minutes and 2 hours. Thereafter the reaction is terminated by the addition of 1/10 of the reaction volume of 10% acetic acid. The same assay conditions are used to determine the glucosylation of mandelonitrile, benzoic acid, benzylalcohol, geraniol and a number of other aglycons.
(§2) For TLC analysis the reaction mixture is applied to Silica Gel 60 F254 plates (Merck), dried and eluted in a solvent containing ethyl acetate:acetone:dichloromethane:methanol:[…] (40:30:12:10:8, v/v). Plates are dried for one hour at room temperature and exposed to storage phosphorlmaging plates (Molecular Dynamics) prior to scanning on a Storm 860 Phosphorimager (Molecular Dynamics).
(§3) Substrate Specificity of Recombinant sbHMNGT Compared to Desalted Crude Etiolated Sorghum Seedling Extract
(§4) Glucosyltransterase activity was determined by TLC using ^14C-UDP-glucose. Filled boxes in Table 1 below (▪) indicate that a radiolabelled product was visualised after incubation with the respective aglycone substrate. Empty boxes (□) indicate that no radiolablled products could be detected under the experimental conditions employed. Figures in brackets indicate the relative Vmax for each aglycon with calculated standard deviations.

[2] = target: T1, recombinant sbHMNGT (UDP-glucose:p-hydroxymandelonitrile-glucosyltransferase) (Sorghum bicolor, UniProt Q9SBL1); test: Substrate specificity of recombinant sbHMNGT (TLC, 14C-UDP-glucose); format: biochemical; parameters: key to ACTIVITY Recombinant sbHMNGT (radiolabelled glucoside product): ▪: indicate that a radiolabelled product was visualised after incubation with the respective aglycone substrate; □: indicate that no radiolablled products could be detected under the experimental conditions employed; settings: for ACTIVITY Recombinant sbHMNGT (radiolabelled glucoside product): 1.25 mM aglycone, 100 ng recombinant sbHMNGT, 20 min at 30° C., TLC
T1 construct: are used to amplify a 1500 bp full-length sbHMNGT insert by PCR; made in house; host or cells: E. coli JM109, vector pSP19g10L
Experimental: as §1
To determine the substrate specificity of recombinant sbHMNGT incubation lasts for 20 min at 30° C. and the general protocol above is adapted to include • 1.25 mM aglycone (dissolved in ethanol except for flavonoids which are dissolved in ethylene glycol monoether), • 1.25 μM ^14C-UDP-glucose, • 12.5 μM UDP-glucose, • 100 ng recombinant sbHMNGT, and • 4 μg BSA.
as §2, §3, §4

sbHMNGT [3] = target: T2, sbHMNGT (Sorghum bicolor, UniProt Q9SBL1); test: Quantitative determination of the activity of recombinant sbHMNGT (Vmax); format: biochemical; parameters: are used to amplify a 1500 bp full-length sbHMNGT insert by PCR; made in house; host or cells: E. coli JM109, vector pSP19g10L; settings: for relative Vmax with calculated standard deviations: relative to p-hydroxymandelonitrile, 1, 5 or 10 mM aglycone, 4 minutes at 30° C.
Experimental: as §1
Quantitative determination of the activity of recombinant sbHMNGT is carried out using 4 minutes incubation at 30° C. Analyses are carried out as for the determination of substrate specificity except that the reaction mixtures are composed as folows: • 1, 5 or 10 mM aglycone, • 5 μM ^14C-UDP-glucose, • 0.2 mM UDP-glucose, • 200 ng recombinant sbHMNGT, and • 24 μg BSA.
as §4

sbHMNGT [4] = target: T2, sbHMNGT; test: sbHMNGT activity assay during purification (LSC); format: biochemical; parameters: from tissue; host or cells: etiolated Sorghum bicolor seedling shoots; ammonium sulphate, Q-sepharose and Reactive Yellow 3 fractions; settings: native sbHMNGT
Experimental: as §1
For analysis by liquid scintillation counting (LSC) reaction mixtures are extracted with 400 μl of ethyl acetate to separate glucosides from unincorporated ^14C-UDP-glucose. 2 ml of Ecoscint A (National Diagnostics, New Jersey, USA) are added to 250 μl of each ethyl acetate extract and analyzed using a Win Spectral 1414 (Wallac) liquid scintillation counter. Mandelonitrile is used as substrate to assay fractions generated by liquid chromatography.
Except where indicated all steps are carried out at 4° C. […] Furthermore, the absence of a hydroxyl group at the para-position of the benzene ring rules out the possibility of p-glucosyloxymandelonitrile synthesis, which would be indistinguishable from dhurrin using the LSC assay.

T2 sequence (Q9SBL1 whole entry): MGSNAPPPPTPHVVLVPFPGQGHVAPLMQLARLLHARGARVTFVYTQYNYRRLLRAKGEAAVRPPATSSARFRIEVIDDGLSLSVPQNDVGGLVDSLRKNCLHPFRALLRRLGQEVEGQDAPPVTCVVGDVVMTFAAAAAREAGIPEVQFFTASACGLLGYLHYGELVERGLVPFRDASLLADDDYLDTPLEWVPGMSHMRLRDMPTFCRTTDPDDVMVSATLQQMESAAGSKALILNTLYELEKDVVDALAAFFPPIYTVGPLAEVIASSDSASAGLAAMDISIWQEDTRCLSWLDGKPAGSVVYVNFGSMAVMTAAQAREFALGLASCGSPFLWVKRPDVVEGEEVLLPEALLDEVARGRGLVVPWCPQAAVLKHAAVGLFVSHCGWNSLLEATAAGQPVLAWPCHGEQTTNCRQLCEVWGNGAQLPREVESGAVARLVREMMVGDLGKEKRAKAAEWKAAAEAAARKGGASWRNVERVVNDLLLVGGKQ
T1 sequence (Q9SBL1 whole entry): as above

Structure (SMILES)	ACTIVITY Crude Sorghum extract (radiolabelled glucoside product) [1]	ACTIVITY Recombinant sbHMNGT (radiolabelled glucoside product) [2]	ability of sbHMNGT to glucosylate the aglycon [2]	rate of glucosylation compared with the cyanohydrins (sbHMNGT [3])	relative Vmax with calculated standard deviations (sbHMNGT [3]; recombinant sbHMNGT)	substrate quality compared with p-hydroxymandelonitrile (sbHMNGT [4])	Vmax (sbHMNGT [3]; recombinant sbHMNGT)
CCCCCCO [1-hexanol]	▪	▪	–	–	–	–	–
O=C(O)C=Cc1ccccc1O [2-hydroxy cinnamic acid]	▪	□	–	–	–	–	–
COc1cccc(CO)c1O [2-hydroxy-3-methoxybenzlalcohol]	▪	▪	glucosylate	–	–	–	–
CCCC(C)=CCO [3-methyl-2-hexen-1-ol]	▪	▪	–	–	–	–	–
CCC=C(C)CCO [3-methyl-3-hexen-1-ol]	▪	▪	–	–	–	–	–
CC(C)(O)C#N [acetone cyanohydrin]	□	□	–	–	–	–	–
O=c1cc(-c2ccc(O)cc2)oc2cc(O)cc(O)c12 [apigenin]	▪	□	–	–	–	–	–
O=C(O)c1ccccc1 [benzoic acid]	▪	▪	glucosylate	lower than those observed for the cyanohydrins	(4.2 ± 0.8%)	–	–
OCc1ccccc1 [benzyl alcohol]	▪	▪	glucosylate	lower than those observed for the cyanohydrins	(13.1 ± 2.1%)	–	–
COc1ccc(-c2coc3cc(O)cc(O)c3c2=O)cc1 [biochanin A]	▪	□	–	–	–	–	–
O=C(O)/C=C/c1ccc(O)c(O)c1 [caffeic acid]	▪	□	–	–	–	–	–
CC/C=C\CCO [cis-3-hexen-1-ol]	▪	▪	–	–	–	–	–
O=C(O)c1cc(O)ccc1O [gentisic acid]	□	□	–	–	–	–	–
CC(C)=CCC/C(C)=C/CO [geraniol]	▪	▪	glucosylate	lower than those observed for the cyanohydrins	(11.0 ± 0.5%)	–	–
Oc1ccc(O)cc1 [hydroquinone]	▪	□	–	–	–	–	–
N#CC(O)c1ccccc1 (centres unmarked) [mandelonitrile]	▪	▪	–	–	(77.8 ± 8.6%)	equally good substrate	–

Structure (SMILES)	ACTIVITY Crude Sorghum extract (radiolabelled glucoside product) [1]	ACTIVITY Recombinant sbHMNGT (radiolabelled glucoside product) [2]	ability of sbHMNGT to glucosylate the aglycon [2]	rate of glucosylation compared with the cyanohydrins (sbHMNGT [3])	relative Vmax with calculated standard deviations (sbHMNGT [3]; recombinant sbHMNGT)	substrate quality compared with p-hydroxymandelonitrile (sbHMNGT [4])	Vmax (sbHMNGT [3]; recombinant sbHMNGT)
O=C1C[C@@H](c2ccc(O)cc2)Oc2cc(O)cc(O)c21 [naringenin]	▪	□	–	–	–	–	–
CC(C)=CCC/C(C)=C\CO [nerol]	▪	▪	glucosylate	–	–	–	–
CC(C)=CCCC(C)CCO (centres unmarked) [p-citronellol]	▪	▪	glucosylate	–	–	–	–
O=Cc1ccc(O)cc1 [p-hydroxybenzaldehyde]	▪	□	–	–	–	–	–
O=C(O)c1ccc(O)cc1 [p-hydroxybenzoic acid]	▪	□	–	–	–	–	–
OCc1ccc(O)cc1 [p-hydroxybenzyl alcohol]	▪	▪	–	–	–	–	–
O=C(O)C(O)c1ccc(O)cc1 (centres unmarked) [p-hydroxymandelic acid]	▪	□	–	–	–	–	–
N#CC(O)c1ccc(O)cc1 (centres unmarked) [p-hydroxymandelonitrile]	▪	▪	–	–	(100 ± 7.2%)	–	1500 mol of product/mol of sbHMNGT/sec
O=c1c(O)c(-c2ccc(O)c(O)c2)oc2cc(O)cc(O)c12 [quercetin]	▪	□	–	–	–	–	–
Oc1ccc(C=Cc2cc(O)cc(O)c2)cc1 [resveratrol]	▪	□	–	–	–	–	–
O=C(O)c1ccccc1O [salicylic acid]	▪	□	–	–	–	–	–
C[C@H]1CC[C@]2(NC1)O[C@H]1C[C@H]3[C@@H]4CC[C@H]5C[C@@H](O)CC[C@]5(C)[C@H]4CC[C@]3(C)[C@H]1[C@@H]2C [tomatidine]	▪	□	–	–	–	–	–
CCC/C=C/CO [trans-2-hexen-1-ol]	▪	▪	–	–	–	–	–
COc1cc(C(=O)O)ccc1O [vanillic acid]	▪	▪	glucosylate	–	–	–	–
COc1cc(C=O)ccc1O [vanillin]	▪	▪	glucosylate	–	–	–	–
